According to patent publication US20240009259A1, “USE OF CRASSOCEPHALUM RABENS EXTRACT IN THE PREVENTION AND/OR TREATMENT OF FATIGUE AND/OR DEPRESSION” (ACADEMIA SINICA, priority 2021, published 2024):
Where a name gives a salt, the structure may show the parent alone.

How the values were obtained:
[1] = Blood (serum) biochemical parameters after 28-day treatment; type: in vivo, BALB/c mice; conditions: male mice, 28 days
[2] = type: in vivo, BALB/c mice; conditions: Program II; male mice; Fluoxetine 10 mg/kg i.p. daily, 4 weeks
[3] = tested on: skeletal muscle lactate dehydrogenase (LDH); assay: Skeletal muscle lactate dehydrogenase (LDH) activity after forced swimming test; type: in vivo, BALB/c mice; conditions: Program II; male mice; Fluoxetine 10 mg/kg i.p. daily
[4] = tested on: skeletal muscle malate dehydrogenase (MDH); assay: Skeletal muscle malate dehydrogenase (MDH) activity after forced swimming test; type: in vivo, BALB/c mice; conditions: Program II; male mice; Fluoxetine 10 mg/kg i.p. daily

ALB, albumin (serum) ([1]; Fluoxetine 10 mg/kg i.p. daily): 3.67 ± 0.28 g/dL | ALP, alkaline phosphatase (serum) ([1]; Fluoxetine 10 mg/kg i.p. daily): 501.2 ± 21.2 U/L | CHO, cholesterol (serum) ([1]; Fluoxetine 10 mg/kg i.p. daily): 136.5 ± 42.9 mg/dL | CTE, creatinine (serum) ([1]; Fluoxetine 10 mg/kg i.p. daily): 0.45 ± 0.05 mg/dL | GLU, glucose (serum) ([1]; Fluoxetine 10 mg/kg i.p. daily): 207.0 ± 12.6 mg/dL | GOT, glutamic oxaloacetic transaminase (serum) ([1]; Fluoxetine 10 mg/kg i.p. daily): 171.0 ± 19.8 U/L | GPT, glutamic pyruvic transaminase (serum) ([1]; Fluoxetine 10 mg/kg i.p. daily): 61.2 ± 19.2 U/L | HDL, high-density lipoprotein (serum) ([1]; Fluoxetine 10 mg/kg i.p. daily): 136.6 ± 15.3 mg/dL | LDH, lactate dehydrogenase (serum) ([1]; Fluoxetine 10 mg/kg i.p. daily): 362.7 ± 65.3 U/L | TBIL, total bilirubin (serum) ([1]; Fluoxetine 10 mg/kg i.p. daily): 0.65 ± 0.04 mg/dL | TG, triglyceride (serum) ([1]; Fluoxetine 10 mg/kg i.p. daily): 288.3 ± 27.1 mg/dL | TP, total protein (serum) ([1]; Fluoxetine 10 mg/kg i.p. daily): 5.01 ± 0.35 g/dL | UA, uric acid (serum) ([1]; Fluoxetine 10 mg/kg i.p. daily): 2.77 ± 0.32 mg/dL
SMILES: CNCCC(Oc1ccc(C(F)(F)F)cc1)c1ccccc1 (centres unmarked) [Fluoxetine, fluoxetine hydrochloride]
serum biochemical parameters ([1]; Fluoxetine i.p.): no significant difference and fall within the reference range of normal or healthy mice | body weight, feed and water intake [2]: did not have significant differences | increase of LDH activity compared to the vehicle control treatment [3]: 1.3 fold | increase of MDH activity compared to the vehicle control treatment [4]: 1.1 fold
